This is an account of results in ChEMBL document CHEMBL1759984, “Synthesis and structure-activity relationships of phenylpropanoid amides of serotonin on tyrosinase inhibition” (Bioorg Med Chem Lett, 2011).

One experiment addresses T1, Tyrosinase (Agaricus bisporus, UniProt O42713).
T1 sequence (O42713 whole entry): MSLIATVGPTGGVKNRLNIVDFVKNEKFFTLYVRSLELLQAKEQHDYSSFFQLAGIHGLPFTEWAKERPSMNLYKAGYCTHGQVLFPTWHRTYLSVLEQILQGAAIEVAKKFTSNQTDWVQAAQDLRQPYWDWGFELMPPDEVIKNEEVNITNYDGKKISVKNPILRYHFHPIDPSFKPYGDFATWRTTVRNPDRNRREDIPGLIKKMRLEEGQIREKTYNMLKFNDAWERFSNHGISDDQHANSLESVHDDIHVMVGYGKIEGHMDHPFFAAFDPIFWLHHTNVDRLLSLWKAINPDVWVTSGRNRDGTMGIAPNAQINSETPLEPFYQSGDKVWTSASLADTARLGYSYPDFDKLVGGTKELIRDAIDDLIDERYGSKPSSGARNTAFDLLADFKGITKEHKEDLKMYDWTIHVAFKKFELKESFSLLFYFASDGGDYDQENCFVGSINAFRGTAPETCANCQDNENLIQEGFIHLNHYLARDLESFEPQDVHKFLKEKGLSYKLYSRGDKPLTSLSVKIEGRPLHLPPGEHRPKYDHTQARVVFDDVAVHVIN

For experiment [1], the system named is Radical scavenging activity.
Description: Antioxidant activity assessed as DPPH radical scavenging activity by spectrophotometry

Description for Tyrosinase: Inhibition of mushroom tyrosinase after 25 mins by spectrophotometry

Turning to `COc1ccc(/C=C/C(=O)NCCc2c[nH]c3ccc(O)cc23)cc1O` [N-ISOFERULOYL SEROTONIN], the 50% inhibitory concentration (IC50) (commonly the point on the concentration scale where inhibition reaches its midpoint) at Tyrosinase was determined as 5.4 µM. Moreover, in experiment [1], the EC50 (usually the concentration needed to bring the measured effect to its halfway point) is 35.1 µM.

On Tyrosinase, `O=C(/C=C/c1ccccc1)NCCc1c[nH]c2ccc(O)cc12` [N-CINNAMOYL SEROTONIN] registered an IC50 of 40.4 µM. The same molecule gave an EC50 in experiment [1] of 22.2 µM.

Molecule `O=C(/C=C/c1ccc(O)cc1)NCCc1c[nH]c2ccc(O)cc12` [N-P-COUMAROYL SEROTONIN] displayed a half-maximal inhibitory concentration (IC50) at Tyrosinase of 8.8 µM. In addition, in experiment [1], the response was half-maximal at 24.7 µM (EC50).

For `O=C(O)/C=C/c1ccc(O)cc1` [COUMARIC ACID], the concentration for half-maximal inhibition (IC50) against Tyrosinase came to 121 µM. In addition, the EC50 in experiment [1] was > 250 µM.

The molecule `COc1ccc(/C=C/C(=O)NCCc2c[nH]c3ccc(O)cc23)cc1OC` [N-3,4-DIMETHOXY CINNAMOYL SEROTONIN] showed an IC50 at Tyrosinase of 322 µM. For the same molecule, it took 28.1 µM to reach a half-maximal effect in experiment [1] (EC50).

On to `COc1cc(/C=C/C(=O)O)cc(OC)c1O` [SINAPINATE], for which the IC50 against Tyrosinase was > 351 µM. Moreover, the 50% effective concentration (EC50) in experiment [1] is > 250 µM.

For the molecule `COc1ccc(/C=C/C(=O)O)cc1` [4-METHOXYCINNAMIC ACID], the half-inhibitory concentration (IC50) against Tyrosinase is > 350 µM. In addition, the EC50 in experiment [1] is > 250 µM.

Take `O=C(O)CCC(=O)NCCc1c[nH]c2ccc(O)cc12` [BUFOBUTANOIC ACID]: on Tyrosinase, the concentration for half-maximal inhibition (IC50) was > 350 µM. For the same molecule, the half-maximal effective concentration (EC50) in experiment [1] turned out to be 38.3 µM.

As for `COc1cc(/C=C/C(=O)NCCc2c[nH]c3ccc(O)cc23)cc(OC)c1O` [N-SINAPOYL SEROTONIN], on Tyrosinase, the 50% inhibitory concentration (IC50) is > 350 µM. The molecule further displayed an EC50 in experiment [1] of 30.7 µM.

At Tyrosinase, `COc1ccc(/C=C/C(=O)NCCc2c[nH]c3ccc(O)cc23)cc1` [N-P-METHOXY CINNAMOYL SEROTONIN] had a concentration for half-maximal inhibition (IC50) of 23.8 µM. The same molecule had an EC50 in experiment [1] of 34.2 µM.

Turning to `NCCc1c[nH]c2ccc(O)cc12` [SEROTONIN], the IC50 at Tyrosinase is > 350 µM. In addition, the EC50 in experiment [1] is > 250 µM.

For the molecule `COc1cc(/C=C/C(=O)NCCc2c[nH]c3ccc(O)cc23)ccc1O` [N-FERULOYL SEROTONIN], the concentration for half-maximal inhibition (IC50) against Tyrosinase was 8 µM. The same molecule gave an EC50 in experiment [1] of 22.8 µM.

For the molecule `COc1cc(/C=C/C(=O)O)ccc1O` [FERULATE], at Tyrosinase, the IC50 was > 350 µM. In addition, the EC50 in experiment [1] is > 250 µM.

In the case of `O=C(/C=C/c1ccc(O)c(O)c1)NCCc1c[nH]c2ccc(O)cc12` [N-CAFFEOYLSEROTONIN], the IC50 against Tyrosinase stood at 278 µM. It took 19.4 µM to reach a half-maximal effect in experiment [1] (EC50).
